≈ marks a conversion by molar mass, not a printed value. Where two headings read alike, the source gives them in different places.
Columns and labels:
reverse transcriptase = reverse transcriptase (Human immunodeficiency virus type 1 group M subtype B, UniProt P04585); assay: Reverse transcriptase assay with disrupted HIV; type: biochemical; set-up: made in house; host or cells: virions from culture supernatants of HIV-producing Molt-4 cells (Molt-4/HIV), disrupted with Triton X-100
Protocol: Supernatants of Molt-4/HIV were concentrated 100 times by sucrose gradient ultracentrifugation. The viral pellets were disrupted by addition of suspension buffer containing 5 mM Tris-HCI(pH 8.1), 0.5 M KCI, 0.1 mM dithiothreitol and 0.1 % Triton® X-100. The assay for reverse transcriptase activity was performed at 37°C for 1 h with a 10 0 of the disrupted HIV in a final volume of 50 µl containing 50 mM Tris-HCI(pH 8.4), 2 mM dithiothreitol, 100 mM KCI, 10 mM MgCI, 0.01 % Triton X-100. 1 wCi 3H-thymidine triphosphate (57 Ci/m mol.; Amersham, Buckinghanshire, UK) and 50 gg/ml poly(rA)/oligo(dT)(P-L Biochemicals Inc., Milwaukee, Wis). The reaction was stopped with 5% trichloroacetic acid, and precipitates were collected on glass fibre filters and counted in a liquid scintillation counter (Harada et. al; Virology 146, p.272-281,1985b). The assays were carried out in triplicate.

VSV = conditions: cited from earlier work
herpes simplex virus [1] = conditions: cited from earlier work
HIV [2] = assay: Reverse transcriptase activity in culture fluids of HIV infected clone No.8 cells of Molt-4; type: cell-based; conditions: 1 mg/ml
HIV [3] = type: cell-based
Protocol: HIV was obtained from the culture supernatant of Molt-4/HIV. Titer of virus preparation was 6x10^4 plaque forming units/ml. Infection of MT-4 cells and clone No. 8 cells of Molt-4 with HIV was made at a multiplicity of infectin of 0.002.
To evaluate the direct effect of glycyrrhizin on the infection of HIV in MT-4 cells, plaque assay using agarose overlay medium with various concentrations of glycyrrhizin was performed. Briefly, in order to fasten MT-4 cells onto culture vessels, 35 mm polystyrene tissue culture dishes were coated with poly-L-lysine (Sigma Chemical Co., St. Louis,Mo) One and half milliliters of 1.50 x 10^6/ml MT-4 cells were dropped onto each poly-L-lysine-coated dish and incubator for 1 hour at room temperature. The dishes were gently washed with phosphate buffered saline to remove unbound cells, 100 p.1 of appropriate diluted virus preparation was slowly added and incubated for 1 hour at room temperature for virus adsorption. After adsorption, 1 ml of the agarose overlay medium consisting of RPMI 1640 medium with 10 % fetal calf serum, antibiotics and 0.6 % agarose (Sea plaque Agarose, Marine Colloid Corp., Rockland, Me) was poured into each dish. The dishes were incubated in a C02 incubator at 37°C for 3 days and 1 ml of agarose overlay medium containing neutral red was added. The dishes were incubated 3 more days and visible plaque were counted. All experiments were carried out in triplicate.

MT-4 cells [4] = assay: Growth of MT-4 cells not exposed to virus (viable cell count); type: cell-based; conditions: 2 mg/ml
Description: • Fig. 1 is a view showing direct effect of glycyrrhizin on HIV induced plaque forming activity in MT-4 cells. Results are the mean of two experiments each performed in triplicate. • Fig. 2 is a view showing inhibition of cytopathic effect of HIV on MT-4 cells by glycyrrhizin. […] Data are from a single experiment, representative of four separate experiments. […] The viable cells were detected by trypan blue exclusion staining method.

HIV particles = assay: Inactivation of HIV particles by glycyrrhizin (pre-incubation, then plaque assay); type: cell-based; conditions: even at 2 mg/ml, 60 min at 37°C
Protocol: 0.5 ml of HIV containing plaque forming units was mixed with 0.5 ml of various concentrations of glycyrrhizin in the test tubes and incubated at 37°C.
After 60 min. incubation 0.1 ml of each mixture was diluted with 19.9 ml of culture medium, and 0.1 ml of the […] diluted virus preparation was added. After adsorption, 1 ml of the agarose overlay medium consisting of RPMI-1640 medium with 10 % fetal calf serum, antibiotics and 0.6 % agarose was poured in. The maximum concentration of the diluted glycyrrhizin in plaque assay medium was 0.01 mg/ml, and this concentration itself reduced about 10 % of HIV induced plaque forming activity in MT-4 cells.

HIV [5] = assay: Assay for HIV specific antigen expression in HIV infected MT-4 cells (indirect immunofluorescence); type: cell-based; conditions: for percentage of IF-positive cells: day 3 after infection
herpes simplex virus [6] = conditions: human embryonic fibroblast; cited from earlier work
HIV [7] = assay: Number of HIV in culture fluids of infected clone No.8 cells of Molt-4 (MT-4 cell plaque assay system); type: cell-based; conditions: 1 mg/ml
Varicella-Zoster virus = conditions: human embryonic fibroblast; cited from earlier work
HIV [8] = assay: Assay for HIV induced cytopathic effects in HIV infected MT-4 cells (viable cells, trypan blue exclusion); type: cell-based; conditions: day 3, multiplicity of infection 0.002
HIV [9] = assay: Cell fusion of HIV infected clone No.8 cells of Molt-4; type: cell-based; conditions: 1 mg/ml, day 6 and 9
Acute toxicity, rat = type: in vivo; conditions: Oral administration (rat)
HIV [10] = assay: Cytopathic effect in HIV infected clone No.8 cells of Molt-4 (viable cells, viability); type: cell-based; conditions: 1 mg/ml
HIV [11] = assay: HIV-specific antigen expression in HIV infected clone No.8 cells of Molt-4 (immunofluorescence); type: cell-based; conditions: 1 mg/ml
[12] = system: normal pheripleral blood monouclear cells; assay: 3H-thymidine uptake in normal peripheral blood mononuclear cells (lectin-induced blast formation); type: cell-based; conditions: normal lymphocytes, 3 days
Protocol: (§1) MT-4 cells were adjusted to 3x10^5 cells/ml in fresh medium and cultured with various concentrations of glycyrrhizin in a 96-flat bottom well microtiter plate for 3 days. 10^6 pheripleral blood monouclear cells were cultured with 1 wg/ml of poly clonal mitogen PHA or concanavalin A various concentrations of glycyrrhizin for 3 days. Cells were incubated with either 1 µCi/well of ^3H-thymidine (20 Ci/m mol.; New Engl.Nuclear, Boston, MA), for the last 18 hours. The cells were harvested on a glassfiber filter paper and counted in a liquid scintillation counter. All experiments were carried out in triplicate.

MT-4 cells [13] = assay: 3H-thymidine uptake in MT-4 cells (DNA synthesis); type: cell-based; conditions: 3 days
Protocol: as §1

[14] = mouse, in vivo, ip

## Cc1cn([C@H]2C[C@H](N=[N+]=[N-])[C@@H](COP(=O)(O)OP(=O)(O)OP(=O)(O)O)O2)c(=O)[nH]c1=O [3' -azido-TIP, 3'-azido-3'-deoxythymidine triphosphate]
Reverse transcriptase; 0.005 mg/ml
  inhibition of reverse transcriptase activity: 97%

## CC1(C)[C@@H](O)CC[C@]2(C)[C@H]3C(=O)C=C4[C@@H]5C[C@@](C)(C(=O)O)CC[C@]5(C)CC[C@@]4(C)[C@]3(C)CC[C@@H]12 [glycyrrhetinic acid]
VSV; VSV incubated with compound for 30 min
  inactivation of virus particles: inactivates the virus particles
VSV
  replication of VSV: suppress the replication
Herpes simplex virus [1]
  replication of herpes simplex virus: suppress the replication
Herpes simplex virus [1]; herpes simplex virus incubated with compound for 30 min
  inactivation of virus particles: inactivates the virus particles

## CC1(C)[C@@H](O[C@H]2O[C@H](C(=O)O)[C@@H](O)[C@H](O)[C@H]2O[C@@H]2O[C@H](C(=O)O)[C@@H](O)[C@H](O)[C@H]2O)CC[C@]2(C)[C@H]3C(=O)C=C4[C@@H]5C[C@@](C)(C(=O)O)CC[C@]5(C)CC[C@@]4(C)[C@]3(C)CC[C@@H]12 [glycyrrhizin]
HIV [2]; on day 3, CPM per 10^4 viable cells
  RT: 1536 cpm
HIV [2]; on day 6, CPM per 10^4 viable cells
  RT: 5369 cpm
HIV [2]; on day 9, CPM per 10^4 viable cells
  RT: 4369 cpm
Acute toxicity, mouse; Intravenous injection 2 % aqueous solution (mouse)
  LD5o: 682.5 mg/kg
Acute toxicity, mouse; Subcutaneous injection 5 % aqueous solution (mouse)
  LD5o: 1873.3 mg/kg
HIV [3]; 0.01 mg/ml in plaque assay medium
  reduction of HIV induced plaque forming activity in MT-4 cells: about 10%
HIV [3]; 0.05 mg/ml in agarose overlay medium, MT-4 cells
  suppression of plaque formation: 34.2%
HIV [3]; 0.5 mg/ml, MT-4 cells
  inhibition of plaque formation: completely inhibited
HIV [3]; 1 mg/ml, MT-4 cells
  inhibition of plaque formation: completely inhibited
HIV [3]; MT-4 cells
  selectivity index (the ratio on the ID50 for host cell DNA synthesis to the average ID50 for HIV): 17.2
HIV [3]; MT-4 cells, Fig.1
  ID50 (plaque formation of HIV): 125 µg/mL
MT-4 cells [4]
  growth inhibition: 50%
HIV particles
  inactivation of HIV particles: did not inactivate
HIV [5]; 0.005 mg/ml
  percentage of IF-positive cells: 70.9
HIV [5]; 0.05 mg/ml
  percentage of IF-positive cells: 69.3
HIV [5]; 0.25 mg/ml
  expression of HIV-specific antigen (in words): significant inhibition
  percentage of IF-positive cells: 23.3
HIV [5]; 0.5 mg/ml
  expression of HIV-specific antigen (in words): almost completely suppressed
  percentage of IF-positive cells: 1.0
HIV [5]; 1 mg/ml
  expression of HIV-specific antigen (in words): almost completely suppressed
  percentage of IF-positive cells: 0.6
Herpes simplex virus [6]
  ID50 against herpes simplex virus: 600 µg/mL (≈ 729 µM)
HIV [7]; on day 3
  number of HIV: 500< pfu/ml
HIV [7]; on day 6
  number of HIV: 500< pfu/ml
HIV [7]; on day 9
  number of HIV: 1000 pfu/ml
Reverse transcriptase; even at 10 mg/ml
  inhibition of reverse transcriptase activity of HIV (in words): did not inhibit
Varicella-Zoster virus
  ID50 against Varicella-Zoster virus: 580 µg/mL (≈ 705 µM)
HIV [8]; 0.25 mg/ml
  growth inhibition of infected cultures as compared with the uninfected MT-4 cells: not significant
HIV [8]; 0.5 mg/ml
  growth inhibition of infected cultures as compared with the uninfected MT-4 cells: not significant
HIV [8]; 1 mg/ml
  growth inhibition of infected cultures as compared with the uninfected MT-4 cells: not significant
HIV [9]
  fusion on clone No.8 cells of Molt-4: did not occur
Acute toxicity, rat
  LD5o: 3000 mg/kg
HIV [10]; on day 3
  viability: 91.4%
  viable cells: 1.5e+06 mL⁻¹
HIV [10]; on day 6
  viability: 83.4%
  viable cells: 3.4e+06 mL⁻¹
HIV [10]; on day 9
  viability: 84.4%
  viable cells: 7.57e+06 mL⁻¹
HIV [11]; on day 6
  IF posivive cells: 7.1%
HIV [11]; on day 9
  IF positive cells: 5.8%
[12]; PHA
  ID50 on PHA response: 2100 µg/mL (≈ 2550 µM)
[12]; concanavalin A
  ID50 on concanavalin A response: 2000 µg/mL (≈ 2430 µM)
MT-4 cells [13]
  ID50 for DNA synthesis of uninfected MT-4 cells: 2150 µg/mL
[14]
  LD5o: 225 to 244 mL/kg
